Source: patent publication US20230256050A1, “COMPOSITIONS, METHODS AND USES COMPRISING TENEURIN C-TERMINAL ASSOCIATED PEPTIDE -1 (TCAP-1) FOR ENHANCING MUSCLE PERFORMANCE” (priority 2016, published 2023)
Where no end group is shown, it is not given here.

Key:
[1] = system: hind limb muscle; assay: Functional positron emission tomography (fPET) of 18F-deoxyglucose uptake; format: in vivo, Wistar rats; conditions: single subcutaneous 10 nmoles/kg, 3 days later, p<0.1, n=5
Procedure: Male adult Sprague-Dawley rats (-350 g) were used for the muscle function studies. Male adult Wistar rats (-250 g) were used for the functional positron emission tomography tests. Functional Positron emission tomography (fPET) was performed using a Siemens Inveon microPET small animal PET scanner, and [18F]-2-deoxyglucose (FDG) radiotracer (IBA Molecular) and protocol was followed as previously described (Hogg et al., manuscript in review). PET scans were acquired on all of the animals 3 days post-dosing. The animals were injected intravenously with approximately 1mCi of FDG. The FDG uptake occurred under anesthesia for 90 min. Body temperature was maintained with a thermostat-regulated recirculating water heated pad. Static emission data was acquired for 20 minutes. […] The total PET counts were calculated from all voxels within the segmented volumes of interest. (Percent injected dose (%ID)) was calculated by normalizing the total counts in each tissue of interest at each time point, to the whole body total counts calculated over 1 min from the whole body max uptake time point, for each animal, during the first 90 min post FDG administration.) These images were then compiled into 3D projections, thus allowing for accurate analyses of muscle tissue. Fluorescence of the mean pixel was calibrated to volume of muscle being analyzed (mean pixel fluorescence/mm3).

[2] = system: tibialis anterior muscle; assay: Oxidative capacity, NADH staining of muscle cryosections; format: in vivo, Sprague-Dawley rats; conditions: 10 nmoles/kg for 5 days
Procedure: Tibialis anterior muscles from the treated Sprague-Dawley rats were flash-frozen in liquid-nitrogen-cooled isopentane until cryosectioned at 10 µm thickness. Cryosections were then washed 2X with PBS, and then 0.2% NBT solution in PBS containing 0.1% NADH was added and allowed to incubate for 30 min at 37° C. Slides were washed 2X in PBS before mounted with cryoseal and imaged with Canon camera and Leica bright-field microscope at 100x magnification. Images were analyzed on Image J software and frequency distribution curves were constructed, where the darker the pixel represents higher NADH levels. Frequency curves were built based on average of five pictures per tissue, with a minimum of three tissues analysed for each group.

[3] = system: C2C12 murine skeletal muscle cells; assay: Radioactive glucose (3H-2-deoxyglucose) uptake in vitro; format: cell-based, mouse; conditions: 100 nM, at 30 and 45 minutes (p<0.0001, p<0.001)
Procedure: Immortalized murine skeletal cell line C2C12 cells were used for all in vitro studies. Cells were maintained at 60-70% confluency with Dulbecco’s Modified Eagle Medium (DMEM) supplemented with 20% fetal bovine serum (FBS) and penicillin/streptomycin antibiotic combination. To induce differentiation, the media was changed to DMEM supplemented with 10% horse serum and penicillin/streptomycin antibiotic combination, and cells were allowed to differentiate for 6 days (media replaced every 24 h). For treatment, cells were serum starved for 3 h and then treated with either vehicle (ddH20) or TCAP-1 (100 nM).
Immortalized murine skeletal C2C12 cells were allowed to proliferate and differentiate and glucose uptake protocol was followed as previously described with minor modifications (Maher et al., 1991; Uemura & Greenlee, 2006). At day 6 post-plating, cells were washed 2x with Locke’s buffer (154 mM NaCl, 5.6 mM KCI, 2.3 mM CaCl2, 3.6 mM NaHCOs, 5 mM HEPES) without serum and glucose. The culture was incubated in the Locke’s buffer for 1 h at 37° C. followed by exposure to 100 nM insulin, 100 nM TCAP-1, 100 nM SC-TCAP-1, or saline. 3H-2-deoxyglucose (0.5 µCi/ml) was added to culture 5 min before termination of treatment exposure. […] Cell lysates were used for determination of radioactivity by a beta liquid scintillation counter (Beckman Coulter).

[4] = system: neurons; conditions: via increases of glucose transporter GLUT-3 to the plasma membrane (unpublished); cited from earlier work
[5] = system: C2C12 myotubes; assay: Mitochondrial membrane potential in C2C12 cells with Rhodamine-123; format: cell-based, mouse; conditions: caffeine 4 mM; TCAP-1 100 nM pre-treatment for 1 hour, compared with caffeine alone
Procedure: C2C12 myotubes were cultured as previously described above. Changes in mitochondrial membrane potential were assessed using fluorescent indicator Rhodamine123 (R123). Cells were loaded with R123 by incubating a single coverslip in DMEM containing 5 µM R123 (from a 1 mM stock solution in DMSO) for 30 min (37° C.) followed by a 15 min wash in Locke’s Buffer containing (in mM): 154 mM NaCl, 4 mM NaHCOs, 5 mM KCI, 2.3 mM CaCl2, 1 mM MgCl2, 5 mM glucose and 10 mM Hepes (pH 7.4); osmolarity 305-310 mOsmol at 22° C. […] Changes in R123 fluorescence was imaged using a green fluorescent protein (GFP) filter set (Semrock, Rochester, NY, USA) and a X-Cite 120 fluorescence illumination system (Excelitas Technologies, Mississauga, ON, Canada), controlled by Volocity 4.0 imaging software (Quorum Technologies Inc., Guelph, ON, Canada). Fluorescence emissions were detected with an Orca-ER Hamamatsu B/W CCD digital camera (Hamamatsu, Middlesex, NJ, USA). R123 was excited with a wavelength of 480 nm for 100 ms every 5 sec and fluorescence emission was measured at wavelength of 516 nm. […] Using velocity 4.0 imaging software, multiple regions of interests (ROIs) were taken from each coverslip to be analysed.

## TCAP-1: 41-mer peptide from the C-terminal of teneurin-1, synthesized amidated, suspended in 0.9% saline for subcutaneous injection (QQLLGTGRVQGYDGYFVLSVEQYLELSDSANNIHFMRQSEI-NH2)
[1]
  18F-DG uptake in hind limb muscles (fPET fluorescence): significant increase
[2]; contralateral control limb, p<0.05
  NADH staining (oxidative capacity), unstimulated control limb, vs vehicle: significant increased frequency of a stronger NADH-positive staining
[2]; exercised (stimulated) limb, p=0.1
  TCAP-1-mediated increase in oxidative capacity (NADH), stimulated limb, vs vehicle: maintained
[3]
  3H-DG uptake into C2C12 cells vs vehicle: significantly increased
[4]
  glucose uptake in neurons: significantly increases glucose uptake
[5]
  mitochondrial membrane potential (Rhodamine123 fluorescence): significantly higher membrane depolarization
